From US20250195525A1, “ANGIOTENSIN II RECEPTOR ANTAGONIST FOR THE PREVENTION OF SYSTEMIC DISEASES IN CATS” (Boehringer Ingelheim Vetmedica GmbH, priority 2023, published 2025)

Columns and labels:
[1] = tested on: angiotensin II receptor 1; test: Angiotensin II induced blood pressure response in laboratory cats; assay type: in vivo, cat
Excerpt: Moreover, a study in laboratory cats was established to investigate the Angiotensin II induced increase in diastolic blood pressure prior to and after administration of telmisartan. This test was established to estimate the potency as well as the duration of action of sartans, in particular of telmisartan in cats.

cats with CKD = test: placebo controlled field trial in client-owned cats with CKD: progression of SBP; assay type: in vivo, cat; settings: 1 mg/kg body weight
Procedure: This prospective, placebo controlled, randomized, double-blind, multicenter, multinational field study enrolled client-owned cats that were presented in the normal course of veterinary practice to evaluate safety and efficacy of telmisartan on progression-free survival time in cats with CKD compared to placebo. In this study 545 cats were randomly assigned to telmisartan (1 mg/kg body weight) or placebo in a ratio of 1:1.
At least two weeks before the start of the field study, creatinine value and Urine Specific Gravity (USG) were determined. Only cats were included in the study which were diagnosed with CKD, meaning a creatinine value ≥1.9 mg/dl (168 μmol/L) and <5.0 mg/dL (440 μmol/L) and a USG of <1.035.
At all visit timepoints, SBP was recorded prior to performing any other procedures scheduled for the animal during the visit. • 5 SBP readings were taken following a ≥10 minute acclimation period. • The highest and the lowest SBP were excluded and a mean of the remaining 3 SBPs was used to obtain the mean SBP for that visit. Visits were scheduled on Day 0, 30, 90, 180, 270, 365, 450, 540, 630, 730, 810, 900, 990, 1080, 1170, 1260, 1350, 1440 (each ±7) and, if applicable, additional visits every 3 months (+7 days).

[2] = cat, in vivo
[3] = human patients, high dose of 160 mg daily (80 mg twice daily); cited from earlier work

With `CCCc1nc2c(C)cc(-c3nc4ccccc4n3C)cc2n1Cc1ccc(-c2ccccc2C(=O)O)cc1` [Telmisartan, 4′-[2-n-propyl-4-methyl-6-(1-methylbenzimidazol-2-yl)-benzimidazol-1-ylmethyl]-biphenyl-2-carboxylic acid] the “inhibition of the blood pressure response” value ([1]; cats, doses of less than 0.05 mg per kg body weight, majority of the tested cats) was “about 75%”, the “diastolic blood pressure responses to increasing intravenous doses of Angiotensin II” value ([1]; laboratory cats, approximately 24 hours after the last oral dosing, target dose compared with Placebo) was “significantly reduced” and the “Time to event for progression of SBP (up to 160 mmHg), median no. of days” value (cats with CKD) was 446.0 days. The “delay in reaching the endpoint of SBP of 160 mmHg versus placebo (median number of days)” value (cats with CKD; compared to placebo) was 84.5 days, the “Mean probability for progression of SBP” value (cats with CKD; progression = SBP ≥160 mmHg and increase of >20 mmHg compared to baseline) was 0.035 and the “mean V/f oral (second mention, after the intravenous values)” value [2] was 8.8 L/kg. The “mean V/f oral” value ([2]; po) was 20.4 L/kg, the “plasma level (Cmax±SD)” value [3] was “about 2800±2400 ng/ml” and the AUC (in vivo; iv) was 385 ng·h/mL. For the same compound, the AUC (in vivo; po) was 150 ng·h/mL.
